For one series, the target named is T1, mouse sEH (Mus musculus, UniProt P34914).
T1 sequence (P34914 1-554): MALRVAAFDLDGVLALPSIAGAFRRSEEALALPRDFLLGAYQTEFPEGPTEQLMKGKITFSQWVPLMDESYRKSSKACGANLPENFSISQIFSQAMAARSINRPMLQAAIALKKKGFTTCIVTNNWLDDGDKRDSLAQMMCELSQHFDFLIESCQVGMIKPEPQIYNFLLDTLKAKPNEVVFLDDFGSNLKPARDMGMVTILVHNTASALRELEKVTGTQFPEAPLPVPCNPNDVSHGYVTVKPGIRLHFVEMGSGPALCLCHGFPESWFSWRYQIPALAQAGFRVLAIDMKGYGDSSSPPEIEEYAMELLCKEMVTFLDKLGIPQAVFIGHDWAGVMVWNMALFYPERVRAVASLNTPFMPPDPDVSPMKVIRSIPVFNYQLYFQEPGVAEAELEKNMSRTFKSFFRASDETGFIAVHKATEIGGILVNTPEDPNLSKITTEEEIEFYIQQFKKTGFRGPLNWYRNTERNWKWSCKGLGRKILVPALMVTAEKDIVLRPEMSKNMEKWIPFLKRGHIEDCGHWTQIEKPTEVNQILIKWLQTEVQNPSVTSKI
In words: sEH inhibition assay. It is filed as biochemical.

A further series in a line: Solubility assay. The settings on record: sodium phosphate buffer, pH 7.4, aqueous buffer, kinetic from dmso stock. In kind it is physicochemical.
The target in a further series is T2, human sEH (Homo sapiens, UniProt P34913).
T2 sequence (P34913 1-555): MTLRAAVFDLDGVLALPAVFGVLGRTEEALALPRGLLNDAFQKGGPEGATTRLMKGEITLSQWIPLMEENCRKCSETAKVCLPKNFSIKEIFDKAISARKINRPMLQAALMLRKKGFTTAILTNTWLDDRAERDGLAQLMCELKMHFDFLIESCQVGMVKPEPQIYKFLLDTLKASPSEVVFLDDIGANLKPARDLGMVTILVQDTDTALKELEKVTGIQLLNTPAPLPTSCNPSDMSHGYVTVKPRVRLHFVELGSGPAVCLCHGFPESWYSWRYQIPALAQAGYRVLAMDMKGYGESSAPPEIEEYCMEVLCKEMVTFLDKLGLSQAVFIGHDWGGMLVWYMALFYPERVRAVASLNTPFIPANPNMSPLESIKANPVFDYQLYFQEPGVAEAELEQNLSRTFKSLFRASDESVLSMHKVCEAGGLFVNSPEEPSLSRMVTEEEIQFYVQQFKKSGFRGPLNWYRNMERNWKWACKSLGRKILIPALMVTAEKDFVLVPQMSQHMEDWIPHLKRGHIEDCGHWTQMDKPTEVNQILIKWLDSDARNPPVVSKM
Briefly: sEH inhibition assay. It is filed as biochemical.

Another series has as its target T3, rat sEH (Rattus norvegicus, UniProt P80299).
T3 sequence (P80299 1-554): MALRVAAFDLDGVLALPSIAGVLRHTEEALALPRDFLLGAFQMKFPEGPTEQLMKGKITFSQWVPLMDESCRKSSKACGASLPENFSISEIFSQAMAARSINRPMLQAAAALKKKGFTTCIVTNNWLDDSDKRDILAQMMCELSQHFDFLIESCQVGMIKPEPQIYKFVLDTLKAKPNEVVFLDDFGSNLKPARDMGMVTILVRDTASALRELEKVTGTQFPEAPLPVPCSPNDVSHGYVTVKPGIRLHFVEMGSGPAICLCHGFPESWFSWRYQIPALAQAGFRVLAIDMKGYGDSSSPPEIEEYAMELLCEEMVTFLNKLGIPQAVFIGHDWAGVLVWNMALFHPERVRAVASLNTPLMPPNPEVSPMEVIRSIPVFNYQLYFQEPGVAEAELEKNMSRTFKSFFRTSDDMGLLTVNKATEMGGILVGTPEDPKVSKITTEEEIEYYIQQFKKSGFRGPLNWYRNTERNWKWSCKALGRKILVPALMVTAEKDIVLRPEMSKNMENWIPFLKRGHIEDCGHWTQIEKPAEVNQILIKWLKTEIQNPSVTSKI
Briefly: sEH inhibition assay. In kind it is biochemical.

The target of another series is T4, human FAAH (Homo sapiens, UniProt O00519).
T4 sequence (O00519 1-579): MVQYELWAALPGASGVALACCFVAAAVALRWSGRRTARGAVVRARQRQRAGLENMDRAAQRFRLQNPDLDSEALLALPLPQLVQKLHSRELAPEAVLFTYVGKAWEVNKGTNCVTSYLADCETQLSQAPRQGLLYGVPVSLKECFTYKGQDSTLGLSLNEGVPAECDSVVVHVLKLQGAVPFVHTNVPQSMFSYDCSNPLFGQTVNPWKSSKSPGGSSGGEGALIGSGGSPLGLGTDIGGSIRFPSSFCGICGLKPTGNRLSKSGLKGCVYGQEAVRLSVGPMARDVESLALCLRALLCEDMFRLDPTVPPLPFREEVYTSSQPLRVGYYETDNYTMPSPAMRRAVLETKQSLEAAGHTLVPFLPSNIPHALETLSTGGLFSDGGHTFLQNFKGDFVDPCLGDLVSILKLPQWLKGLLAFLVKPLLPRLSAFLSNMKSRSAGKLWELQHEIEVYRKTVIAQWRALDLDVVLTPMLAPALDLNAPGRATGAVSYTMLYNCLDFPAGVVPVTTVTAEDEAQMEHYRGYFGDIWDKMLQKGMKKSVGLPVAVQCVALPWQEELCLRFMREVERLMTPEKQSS
In words: FAAH inhibition assay. It is filed as biochemical.

Usually IC50 stands for the concentration needed to halve the response being measured. A high value points to lower potency. A word on the solubility: it is the concentration that dissolves in the medium under given conditions. Read a low solubility as a poorly soluble substance.

≈ marks a conversion by molar mass, not a printed value. Where only a bound is given, the exact number is not on record here.

Turning to `O=C(Nc1ccc(-c2ncccn2)cc1)C1CCN(S(=O)(=O)c2ccccc2Cl)CC1` [Compound 4a, 1-((2-chlorophenyl)sulfonyl)-N-(4-(pyrimidin-2-yl)phenyl)piperidine-4-carboxamide], the concentration for half-maximal inhibition (IC50) is 342 nM against mouse sEH, 19.7 nM against human sEH, 18.1 nM against rat sEH and 175 nM at human FAAH. Also, the solubility in the series “Solubility assay” was over 63 µM.
In the case of `O=C(Nc1ccc(-c2cncnc2)cc1)C1CCN(S(=O)(=O)c2ccccc2Cl)CC1` [Compound 4b, 1-((2-chlorophenyl)sulfonyl)-N-(4-(pyrimidin-5-yl)phenyl)piperidine-4-carboxamide], the IC50 against mouse sEH was determined as 904 nM; against human sEH it was 5.6 nM; on rat sEH, 4.9 nM; on human FAAH, 196 nM. The solubility in “Solubility assay” is over 63 µM.
As to `O=C(Nc1ccc(-c2ncc(F)cn2)cc1)C1CCN(S(=O)(=O)c2ccccc2Cl)CC1` [Compound 4c, 1-((2-chlorophenyl)sulfonyl)-N-(4-(5-fluoropyrimidin-2-yl)phenyl)piperidine-4-carboxamide], the IC50 on mouse sEH stood at 82.5 nM; against human sEH it was 23.4 nM; on rat sEH it was 47.7 nM; at human FAAH, 290 nM. In addition, the solubility in the series “Solubility assay” lay within 31 to 63 µM (≈ 14.7 to 29.9 µg/mL).
As for `O=C(Nc1ccc(-c2ncc(Cl)cn2)cc1)C1CCN(S(=O)(=O)c2ccccc2Cl)CC1` [Compound 4d, 1-((2-chlorophenyl)sulfonyl)-N-(4-(5-chloropyrimidin-2-yl)phenyl)piperidine-4-carboxamide], the IC50 against mouse sEH was 89 nM; against human sEH, 89.4 nM; against rat sEH, 82.3 nM; against human FAAH, 460 nM. The compound also showed a solubility in the series “Solubility assay” of 31 to 63 µM (≈ 15.2 to 31 µg/mL).
The matching figures for `Cc1cnc(-c2ccc(NC(=O)C3CCN(S(=O)(=O)c4ccccc4Cl)CC3)cc2)nc1` [Compound 4e, 1-((2-chlorophenyl)sulfonyl)-N-(4-(5-methylpyrimidin-2-yl)phenyl)piperidine-4-carboxamide]: 79.8 nM, 73.6 nM, 73.9 nM, 308 nM and 31 to 63 µM (≈ 14.6 to 29.7 µg/mL).
The matching figures for `COc1cnc(-c2ccc(NC(=O)C3CCN(S(=O)(=O)c4ccccc4Cl)CC3)cc2)nc1` [Compound 4f, 1-((2-chlorophenyl)sulfonyl)-N-(4-(5-methoxypyrimidin-2-yl)phenyl)piperidine-4-carboxamide]: 32.4 nM, 26.3 nM, 55.9 nM, 181 nM and 31 to 63 µM (≈ 15.1 to 30.7 µg/mL).
Regarding `O=C(Nc1ccc(-c2cnc(F)nc2)cc1)C1CCN(S(=O)(=O)c2ccccc2Cl)CC1` [Compound 4g, 1-((2-chlorophenyl)sulfonyl)-N-(4-(2-fluoropyrimidin-5-yl)phenyl)piperidine-4-carboxamide], the IC50 on mouse sEH is 161 nM; against human sEH, 27.2 nM; on rat sEH, 43.7 nM; against human FAAH, 175 nM. This compound also yielded a solubility in “Solubility assay” of 31 to 63 µM (≈ 14.7 to 29.9 µg/mL).
On the same counts, the results for `O=C(Nc1ccc(-c2cnc(Cl)nc2)cc1)C1CCN(S(=O)(=O)c2ccccc2Cl)CC1` [Compound 4h, 1-((2-chlorophenyl)sulfonyl)-N-(4-(2-chloropyrimidin-5-yl)phenyl)piperidine-4-carboxamide] are 510 nM, 32.6 nM, 71.5 nM, 258 nM and 31 to 63 µM (≈ 15.2 to 31 µg/mL).
As for `Cc1ncc(-c2ccc(NC(=O)C3CCN(S(=O)(=O)c4ccccc4Cl)CC3)cc2)cn1` [Compound 4i, 1-((2-chlorophenyl)sulfonyl)-N-(4-(2-methylpyrimidin-5-yl)phenyl)piperidine-4-carboxamide], the IC50 worked out at 214 nM on mouse sEH, 5.6 nM on human sEH, 12.1 nM on rat sEH and 1240 nM against human FAAH. Moreover, in the series “Solubility assay”, the solubility was 31 to 63 µM (≈ 14.6 to 29.7 µg/mL).
The matching figures for `COc1ncc(-c2ccc(NC(=O)C3CCN(S(=O)(=O)c4ccccc4Cl)CC3)cc2)cn1` [Compound 4j, 1-((2-chlorophenyl)sulfonyl)-N-(4-(2-methoxypyrimidin-5-yl)phenyl)piperidine-4-carboxamide]: 379 nM, 7.7 nM, 17.9 nM, 462 nM and 31 to 63 µM (≈ 15.1 to 30.7 µg/mL).
As for `O=C(Nc1ccc(-c2cnc(C(F)(F)F)nc2)cc1)C1CCN(S(=O)(=O)c2ccccc2Cl)CC1` [Compound 4k, 1-((2-chlorophenyl)sulfonyl)-N-(4-(2-(trifluoromethyl)pyrimidin-5-yl)phenyl)piperidine-4-carboxamide], the IC50 at mouse sEH turned out to be 1130 nM; against human sEH it was 94.6 nM; against rat sEH it was 134 nM; against human FAAH, 327 nM. This compound came in with a solubility in the series “Solubility assay” of 31 to 63 µM (≈ 16.3 to 33.1 µg/mL).
On the same counts, the results for `O=C(Nc1ccc(-c2cnc(Cl)nc2Cl)cc1)C1CCN(S(=O)(=O)c2ccccc2Cl)CC1` [Compound 4l, 1-((2-chlorophenyl)sulfonyl)-N-(4-(2,4-dichloropyrimidin-5-yl)phenyl)piperidine-4-carboxamide] are 40.4 nM, 78.8 nM, 15.4 nM, 2000 nM and 31 to 63 µM (≈ 16.3 to 33.1 µg/mL).
For `O=C(Nc1ccc(-c2nnn[nH]2)cc1)C1CCN(S(=O)(=O)c2ccccc2Cl)CC1` [Compound 4n, N-(4-(1H-tetrazol-5-yl)phenyl)-1-((2-chlorophenyl)sulfonyl)piperidine-4-carboxamide], the IC50 against mouse sEH was 202 nM; against human sEH, 232 nM; against rat sEH, 83.4 nM; against human FAAH, over 10000 nM. Moreover, in “Solubility assay”, the solubility was in the range of 31 to 63 µM (≈ 13.9 to 28.2 µg/mL).
The matching figures for `O=C(Nc1ccc(-c2nnnn2C2CC2)cc1)C1CCN(S(=O)(=O)c2ccccc2Cl)CC1` [Compound 4o, 1-((2-chlorophenyl)sulfonyl)-N-(4-(1-cyclopropyl-1H-tetrazol-5-yl)phenyl)piperidine-4-carboxamide]: 12.5 nM, 22 nM, 29.6 nM, over 10000 nM and 31 to 63 µM (≈ 15.1 to 30.7 µg/mL).
`NC(=O)c1cccc(-c2cccc(OC(=O)NC3CCCCC3)c2)c1` [URB597, reference compound] registered a solubility in the series “Solubility assay” of over 63 µM.

(Values after article PMC12814486 (Bioorganic & medicinal chemistry, 2025).)
